In ChEMBL document CHEMBL4052714, “Synthesis and antibacterial activity of novel 4″-O-(1-aralkyl-1,2,3-triazol-4-methyl-carbamoyl) azithromycin analogs” (2017):
Converted amounts (≈) assume the structure as drawn.

Columns and labels:
Assay type in all cases: functional
Streptococcus pneumoniae [1] = assay: Antibacterial activity against erythromycin-resistant Streptococcus pneumoniae AB11 expressing ermB/mefA gene
Staphylococcus aureus [2] = assay: Antibacterial activity against erythromycin-susceptible Staphylococcus aureus ATCC 25923
Staphylococcus aureus [3] = assay: Antibacterial activity against methicillin-susceptible Staphylococcus aureus ATCC 29213
Streptococcus pyogenes [4] = assay: Antibacterial activity against erythromycin-resistant Streptococcus pyogenes isolate R2
Streptococcus pyogenes [5] = assay: Antibacterial activity against erythromycin-susceptible Streptococcus pyogenes isolate S2
Streptococcus pneumoniae [6] = assay: Antibacterial activity against erythromycin-resistant Streptococcus pneumoniae B1 expressing ermB gene
Streptococcus pneumoniae [7] = assay: Antibacterial activity against erythromycin-susceptible Streptococcus pneumoniae ATCC 49619
Streptococcus pneumoniae [8] = assay: Antibacterial activity against erythromycin-resistant Streptococcus pneumoniae A22072 expressing mefA gene
Escherichia coli = assay: Antibacterial activity against Escherichia coli ATCC 25922
Pseudomonas aeruginosa = assay: Antibacterial activity against Pseudomonas aeruginosa ATCC 27853

Compound `CC[C@H]1OC(=O)[C@H](C)[C@@H](O[C@H]2C[C@@](C)(OC)[C@@H](OC(=O)NCc3cn(Cc4ccccc4Cl)nn3)[C@H](C)O2)[C@H](C)[C@@H](O[C@@H]2O[C@H](C)C[C@H](N(C)C)[C@H]2O)[C@](C)(O)C[C@@H](C)CN(C)[C@H](C)[C@@H](O)[C@]1(C)O` has an MIC (Streptococcus pneumoniae [1]) of 0.5 µg/mL (≈ 0.501 µM), an MIC (Staphylococcus aureus [2]) of 1 µg/mL (≈ 1 µM) and an MIC (Staphylococcus aureus [3]) of 8 µg/mL (≈ 8.02 µM). It also gave an MIC (Streptococcus pyogenes [4]) of 64 µg/mL (≈ 64.1 µM), an MIC (Streptococcus pyogenes [5]) of 0.03 µg/mL (≈ 0.0301 µM) and an MIC (Streptococcus pneumoniae [6]) of 1 µg/mL (≈ 1 µM). The MIC (Streptococcus pneumoniae [7]) was 0.25 µg/mL (≈ 0.251 µM), the MIC (Streptococcus pneumoniae [8]) was 0.25 µg/mL (≈ 0.251 µM) and the MIC (Escherichia coli) was 128 µg/mL (≈ 128 µM). For the same compound, the MIC (Pseudomonas aeruginosa) was 32 µg/mL (≈ 32.1 µM).
`CC[C@H]1OC(=O)[C@H](C)[C@@H](O[C@H]2C[C@@](C)(OC)[C@@H](OC(=O)NCc3cn(Cc4ccc(Cl)cc4Cl)nn3)[C@H](C)O2)[C@H](C)[C@@H](O[C@@H]2O[C@H](C)C[C@H](N(C)C)[C@H]2O)[C@](C)(O)C[C@@H](C)CN(C)[C@H](C)[C@H]2OC(=O)O[C@@]21C` was tested, and the MIC (Streptococcus pneumoniae [1]) was 2 µg/mL (≈ 1.89 µM), the MIC (Staphylococcus aureus [2]) was 4 µg/mL (≈ 3.78 µM) and the MIC (Staphylococcus aureus [3]) was 32 µg/mL (≈ 30.2 µM). The MIC (Streptococcus pyogenes [4]) was 32 µg/mL (≈ 30.2 µM), the MIC (Streptococcus pyogenes [5]) was 0.125 µg/mL (≈ 0.118 µM) and the MIC (Streptococcus pneumoniae [6]) was 4 µg/mL (≈ 3.78 µM). It also gave an MIC (Streptococcus pneumoniae [7]) of 1 µg/mL (≈ 0.945 µM), an MIC (Streptococcus pneumoniae [8]) of 1 µg/mL (≈ 0.945 µM) and an MIC (Escherichia coli) of 128 µg/mL (≈ 121 µM). For the same compound, the MIC (Pseudomonas aeruginosa) was 64 µg/mL (≈ 60.5 µM).
`CC[C@H]1OC(=O)[C@H](C)[C@@H](O[C@H]2C[C@@](C)(OC)[C@@H](OC(=O)NCc3cn(Cc4ccccc4C)nn3)[C@H](C)O2)[C@H](C)[C@@H](O[C@@H]2O[C@H](C)C[C@H](N(C)C)[C@H]2O)[C@](C)(O)C[C@@H](C)CN(C)[C@H](C)[C@H]2OC(=O)O[C@@]21C` gave an MIC (Streptococcus pneumoniae [1]) of 2 µg/mL (≈ 1.99 µM), an MIC (Staphylococcus aureus [2]) of 4 µg/mL (≈ 3.99 µM) and an MIC (Staphylococcus aureus [3]) of 32 µg/mL (≈ 31.9 µM). The MIC (Streptococcus pyogenes [4]) was 64 µg/mL (≈ 63.8 µM), the MIC (Streptococcus pyogenes [5]) was 0.06 µg/mL (≈ 0.0598 µM) and the MIC (Streptococcus pneumoniae [6]) was 4 µg/mL (≈ 3.99 µM). It also gave an MIC (Streptococcus pneumoniae [7]) of 0.5 µg/mL (≈ 0.498 µM), an MIC (Streptococcus pneumoniae [8]) of 2 µg/mL (≈ 1.99 µM) and an MIC (Escherichia coli) of 128 µg/mL (≈ 128 µM). The MIC (Pseudomonas aeruginosa) was 64 µg/mL (≈ 63.8 µM).
`CC[C@H]1OC(=O)[C@H](C)[C@@H](O[C@H]2C[C@@](C)(OC)[C@@H](OC(=O)NCc3cn(Cc4cccc(F)c4)nn3)[C@H](C)O2)[C@H](C)[C@@H](O[C@@H]2O[C@H](C)C[C@H](N(C)C)[C@H]2O)[C@](C)(O)C[C@@H](C)CN(C)[C@H](C)[C@H]2OC(=O)O[C@@]21C` gave an MIC (Streptococcus pneumoniae [1]) of 0.5 µg/mL (≈ 0.496 µM), an MIC (Staphylococcus aureus [2]) of 4 µg/mL (≈ 3.97 µM) and an MIC (Staphylococcus aureus [3]) of 32 µg/mL (≈ 31.8 µM). For the same compound, the MIC (Streptococcus pyogenes [4]) was 128 µg/mL (≈ 127 µM), the MIC (Streptococcus pyogenes [5]) was 0.125 µg/mL (≈ 0.124 µM) and the MIC (Streptococcus pneumoniae [6]) was 4 µg/mL (≈ 3.97 µM). The MIC (Streptococcus pneumoniae [7]) was 1 µg/mL (≈ 0.993 µM), the MIC (Streptococcus pneumoniae [8]) was 4 µg/mL (≈ 3.97 µM) and the MIC (Escherichia coli) was 128 µg/mL (≈ 127 µM). It also gave an MIC (Pseudomonas aeruginosa) of 64 µg/mL (≈ 63.5 µM).
`CC[C@H]1OC(=O)[C@H](C)[C@@H](O[C@H]2C[C@@](C)(OC)[C@@H](OC(=O)NCc3cn(Cc4ccc([N+](=O)[O-])cc4)nn3)[C@H](C)O2)[C@H](C)[C@@H](O[C@@H]2O[C@H](C)C[C@H](N(C)C)[C@H]2O)[C@](C)(O)C[C@@H](C)CN(C)[C@H](C)[C@H]2OC(=O)O[C@@]21C` gave an MIC (Streptococcus pneumoniae [1]) of 0.5 µg/mL (≈ 0.483 µM), an MIC (Staphylococcus aureus [2]) of 4 µg/mL (≈ 3.87 µM) and an MIC (Staphylococcus aureus [3]) of 32 µg/mL (≈ 30.9 µM). For the same compound, the MIC (Streptococcus pyogenes [4]) was 128 µg/mL (≈ 124 µM), the MIC (Streptococcus pyogenes [5]) was 0.008 µg/mL (≈ 0.00774 µM) and the MIC (Streptococcus pneumoniae [6]) was 4 µg/mL (≈ 3.87 µM). It also gave an MIC (Streptococcus pneumoniae [7]) of 1 µg/mL (≈ 0.967 µM), an MIC (Streptococcus pneumoniae [8]) of 4 µg/mL (≈ 3.87 µM) and an MIC (Escherichia coli) of 64 µg/mL (≈ 61.9 µM). The MIC (Pseudomonas aeruginosa) was 64 µg/mL (≈ 61.9 µM).
In the case of `CC[C@H]1OC(=O)[C@H](C)[C@@H](O[C@H]2C[C@@](C)(OC)[C@@H](OC(=O)NCc3cn(Cc4ccc(Cl)cc4)nn3)[C@H](C)O2)[C@H](C)[C@@H](O[C@@H]2O[C@H](C)C[C@H](N(C)C)[C@H]2O)[C@](C)(O)C[C@@H](C)CN(C)[C@H](C)[C@@H](O)[C@]1(C)O`, the MIC (Streptococcus pneumoniae [1]) is reported as 0.5 µg/mL (≈ 0.501 µM), the MIC (Staphylococcus aureus [2]) is reported as 1 µg/mL (≈ 1 µM) and the MIC (Staphylococcus aureus [3]) is reported as 16 µg/mL (≈ 16 µM). It also gave an MIC (Streptococcus pyogenes [4]) of 64 µg/mL (≈ 64.1 µM), an MIC (Streptococcus pyogenes [5]) of 0.03 µg/mL (≈ 0.0301 µM) and an MIC (Streptococcus pneumoniae [6]) of 2 µg/mL (≈ 2 µM). For the same compound, the MIC (Streptococcus pneumoniae [7]) was 0.5 µg/mL (≈ 0.501 µM), the MIC (Streptococcus pneumoniae [8]) was 1 µg/mL (≈ 1 µM) and the MIC (Escherichia coli) was 64 µg/mL (≈ 64.1 µM). For the same compound, the MIC (Pseudomonas aeruginosa) was 32 µg/mL (≈ 32.1 µM).
Compound `CC[C@H]1OC(=O)[C@H](C)[C@@H](O[C@H]2C[C@@](C)(OC)[C@@H](OC(=O)NCc3cn(Cc4ccc(Br)cc4)nn3)[C@H](C)O2)[C@H](C)[C@@H](O[C@@H]2O[C@H](C)C[C@H](N(C)C)[C@H]2O)[C@](C)(O)C[C@@H](C)CN(C)[C@H](C)[C@H]2OC(=O)O[C@@]21C` has an MIC (Streptococcus pneumoniae [1]) of 1 µg/mL (≈ 0.936 µM), an MIC (Staphylococcus aureus [2]) of 2 µg/mL (≈ 1.87 µM) and an MIC (Staphylococcus aureus [3]) of 32 µg/mL (≈ 30 µM). It also gave an MIC (Streptococcus pyogenes [4]) of 32 µg/mL (≈ 30 µM), an MIC (Streptococcus pyogenes [5]) of 0.06 µg/mL (≈ 0.0562 µM) and an MIC (Streptococcus pneumoniae [6]) of 4 µg/mL (≈ 3.74 µM). It also gave an MIC (Streptococcus pneumoniae [7]) of 1 µg/mL (≈ 0.936 µM), an MIC (Streptococcus pneumoniae [8]) of 1 µg/mL (≈ 0.936 µM) and an MIC (Escherichia coli) of 128 µg/mL (≈ 120 µM). For the same compound, the MIC (Pseudomonas aeruginosa) was 64 µg/mL (≈ 59.9 µM).
`CC[C@H]1OC(=O)[C@H](C)[C@@H](O[C@H]2C[C@@](C)(OC)[C@@H](OC(=O)NCc3cn(Cc4ccccc4Cl)nn3)[C@H](C)O2)[C@H](C)[C@@H](O[C@@H]2O[C@H](C)C[C@H](N(C)C)[C@H]2O)[C@](C)(O)C[C@@H](C)CN(C)[C@H](C)[C@H]2OC(=O)O[C@@]21C` showed an MIC (Streptococcus pneumoniae [1]) of 4 µg/mL (≈ 3.91 µM), an MIC (Staphylococcus aureus [2]) of 4 µg/mL (≈ 3.91 µM) and an MIC (Staphylococcus aureus [3]) of 32 µg/mL (≈ 31.3 µM). The MIC (Streptococcus pyogenes [4]) was 16 µg/mL (≈ 15.6 µM), the MIC (Streptococcus pyogenes [5]) was 0.06 µg/mL (≈ 0.0586 µM) and the MIC (Streptococcus pneumoniae [6]) was 8 µg/mL (≈ 7.82 µM). It also gave an MIC (Streptococcus pneumoniae [7]) of 1 µg/mL (≈ 0.977 µM), an MIC (Streptococcus pneumoniae [8]) of 2 µg/mL (≈ 1.95 µM) and an MIC (Escherichia coli) of 128 µg/mL (≈ 125 µM). It also gave an MIC (Pseudomonas aeruginosa) of 64 µg/mL (≈ 62.5 µM).
For `CC[C@H]1OC(=O)[C@H](C)[C@@H](O[C@H]2C[C@@](C)(OC)[C@@H](OC(=O)NCc3cn(Cc4cccc(Cl)c4)nn3)[C@H](C)O2)[C@H](C)[C@@H](O[C@@H]2O[C@H](C)C[C@H](N(C)C)[C@H]2O)[C@](C)(O)C[C@@H](C)CN(C)[C@H](C)[C@@H](O)[C@]1(C)O`, the MIC (Streptococcus pneumoniae [1]) was 1 µg/mL (≈ 1 µM), the MIC (Staphylococcus aureus [2]) was 1 µg/mL (≈ 1 µM) and the MIC (Staphylococcus aureus [3]) was 8 µg/mL (≈ 8.02 µM). For the same compound, the MIC (Streptococcus pyogenes [4]) was 64 µg/mL (≈ 64.1 µM), the MIC (Streptococcus pyogenes [5]) was 0.06 µg/mL (≈ 0.0601 µM) and the MIC (Streptococcus pneumoniae [6]) was 0.5 µg/mL (≈ 0.501 µM). It also gave an MIC (Streptococcus pneumoniae [7]) of 0.25 µg/mL (≈ 0.251 µM), an MIC (Streptococcus pneumoniae [8]) of 0.25 µg/mL (≈ 0.251 µM) and an MIC (Escherichia coli) of 16 µg/mL (≈ 16 µM). The MIC (Pseudomonas aeruginosa) was 32 µg/mL (≈ 32.1 µM).
